Data from US10004711B2, “Methods and compositions comprising 10-hydroxy-2-decenoic acid” (DSM IP ASSETS B.V., priority 2014, dated 2018).

Experiments:
[1] = system: Neurons from the brain's hippocampus; assay: In vitro hypoxia cell health (calcein AM); type: cell-based, rat; conditions: for Cell Viability (% Control): hypoxia (<0.3% O2) 48 h
Experimental: Neurons from the brain's hippocampus were derived from E17 pups and incubated for 7 days. The neurons were then pre-treated with QBA for 48 hours and subsequently exposed to a hypoxia (<0.3% O2) for 48 hours. The cultures were stained with calcein AM, a marker of live cells, and with ethidium homodimer, a marker for dead cells. The fluorescence of each of these markers was then quantitated with a fluorimeter.

[2] = system: Adult female Long-Evans rats; assay: Ovulatory cycle status of female rats with abnormal ovulatory cycles; type: in vivo, rat; conditions: six weeks, count of animals
Excerpt: Adult female Long-Evans rats (3 months-old) with abnormal ovulatory cycles were fed diets containing 10-Hydroxy-2-decenoic acid (QBA) or no QBA for six (6) weeks. Female rats having normal ovulatory cycle were used as positive controls and were not fed QBA.

Structure (SMILES): O=C(O)C=CCCCCCCCO [QBA, 10-Hydroxy-2-decenoic acid]
- Cell Viability (% Control) ([1]; QBA 0.10 μM pre-treatment 48 h): 109.72 % Control
- Cell Viability (% Control) ([1]; QBA 0.30 μM pre-treatment 48 h): 112.76 % Control
- Cell Viability (% Control) ([1]; QBA 1.00 μM pre-treatment 48 h): 118.80 % Control
- Cell Viability (% Control) ([1]; QBA 3.00 μM pre-treatment 48 h): 121.04 % Control
- Cell Viability (% Control) ([1]; QBA 10.00 μM pre-treatment 48 h): 117.65 % Control
- Cell Viability (% Control) ([1]; QBA 30.00 μM pre-treatment 48 h): 115.05 % Control
- Cell Viability (% Control) ([1]; QBA 100.00 μM pre-treatment 48 h): 111.82 % Control
- cell health after low oxygen exposure ([1]; summary of Table 5): increased cell health
- Ovulatory Cycle Status Abnormal ([2]; QBA 0.4 mg/kg/day): 7
- Ovulatory Cycle Status Normal ([2]; QBA 0.4 mg/kg/day): 8
- Ovulatory Cycle Status Abnormal ([2]; QBA 4 mg/kg/day): 9
- Ovulatory Cycle Status Normal ([2]; QBA 4 mg/kg/day): 6
- Ovulatory Cycle Status Abnormal ([2]; QBA 12 mg/kg/day): 4
- Ovulatory Cycle Status Normal ([2]; QBA 12 mg/kg/day): 11
- Ovulatory Cycle Status Abnormal ([2]; QBA 24 mg/kg/day): 12
- Ovulatory Cycle Status Normal ([2]; QBA 24 mg/kg/day): 3
